Data reported in the NIST ThermoML archive (doi:10.1016/j.fluid.2013.12.022).

Experiment: refractive index (other wavelength) (dimensionless); xn = mol fraction of the nth substance listed
Settings: 85 kPa, Liquid, Wavelength=632.8 nm, minimum deviation angle technique

CCCCCCCC[n+]1ccn(C)c1.F[P-](F)(F)(F)(F)F [1-octyl-3-methylimidazolium hexafluorophosphate] + CC(C)(C)O
Settings	refractive index
312.06 K, x1 = 1	1.4179
314.47 K, x1 = 1	1.4173
316.92 K, x1 = 1	1.4166
317.23 K, x1 = 0.699	1.4113
317.35 K, x1 = 0.803	1.4134
317.36 K, x1 = 0.991	1.4149
317.38 K, x1 = 0.398	1.4034
319.13 K, x1 = 0.5	1.4064
319.2 K, x1 = 1	1.416
319.25 K, x1 = 0.699	1.4107
319.26 K, x1 = 0.803	1.4129
319.3 K, x1 = 0.991	1.4144
319.31 K, x1 = 0.398	1.4028
319.63 K, x1 = 0.601	1.4088
320.77 K, x1 = 0.5	1.4059
321.17 K, x1 = 0.1	1.3834
321.28 K, x1 = 0.991	1.4139
321.32 K, x1 = 1	1.4155
321.34 K, x1 = 0.803	1.4124
321.37 K, x1 = 0.2	1.3919
321.38 K, x1 = 0.299	1.3978
321.4 K, x1 = 0.699	1.4102
321.46 K, x1 = 0.398	1.4021
321.58 K, x1 = 0.601	1.4083
322.42 K, x1 = 0.5	1.4054
322.78 K, x1 = 0.299	1.3972
322.79 K, x1 = 0.2	1.3912
322.97 K, x1 = 0.1	1.3826
323.23 K, x1 = 0.991	1.4134
323.3 K, x1 = 1	1.4149
323.32 K, x1 = 0.699	1.4097
323.32 K, x1 = 0.803	1.4118
323.79 K, x1 = 0.601	1.4077
323.84 K, x1 = 0.398	1.4013
324.07 K, x1 = 0.5	1.4049
324.29 K, x1 = 0.2	1.3906
324.29 K, x1 = 0.299	1.3967
324.43 K, x1 = 0.1	1.3819
325 K, x1 = 0.601	1.4073
325.29 K, x1 = 0.991	1.4128
325.3 K, x1 = 0.699	1.4093
325.35 K, x1 = 0.803	1.4113
325.38 K, x1 = 1	1.4143
325.78 K, x1 = 0.398	1.4007
325.81 K, x1 = 0.299	1.3963
325.82 K, x1 = 0.1	1.3814
325.92 K, x1 = 0.5	1.4043
325.95 K, x1 = 0.2	1.39
327.11 K, x1 = 0.699	1.4088
327.12 K, x1 = 0.803	1.4108
327.13 K, x1 = 0.601	1.4066
327.36 K, x1 = 0.2	1.3894
327.4 K, x1 = 0.991	1.4123
327.41 K, x1 = 1	1.4138
327.47 K, x1 = 0.299	1.3957
327.72 K, x1 = 0.398	1.4
327.74 K, x1 = 0.5	1.4037
327.97 K, x1 = 0.1	1.3804
328.85 K, x1 = 0.601	1.4061
329.18 K, x1 = 0.1	1.3797
329.18 K, x1 = 0.2	1.3887
329.26 K, x1 = 0.299	1.3951

CCCO [propan-1-ol] + CCCCCCCC[n+]1ccn(C)c1.F[P-](F)(F)(F)(F)F
x2 = 0
Settings	refractive index
298.19 K	1.3818
300.2 K	1.381
302.19 K	1.3802
304.2 K	1.3793
306.22 K	1.3785
308.24 K	1.3777
310.25 K	1.3769
312.24 K	1.376

CC(C)(C)O [2-methylpropan-2-ol] + CCCCCCCC[n+]1ccn(C)c1.F[P-](F)(F)(F)(F)F
x2 = 0
Settings	refractive index
309.16 K	1.3775
312.05 K	1.3759
315.18 K	1.3742
318.15 K	1.3725
321.11 K	1.3708
324.42 K	1.3689

CCCCCCCC[n+]1ccn(C)c1.F[P-](F)(F)(F)(F)F [1-octyl-3-methylimidazolium hexafluorophosphate] + CCCO
Settings	refractive index
298.19 K, x1 = 1	1.4215
300.2 K, x1 = 1	1.421
302.19 K, x1 = 1	1.4204
304.2 K, x1 = 1	1.4199
305.17 K, x1 = 0.3	1.4047
305.17 K, x1 = 0.5	1.4114
305.21 K, x1 = 0.6	1.4137
305.22 K, x1 = 0.801	1.4171
305.23 K, x1 = 0.698	1.4154
305.26 K, x1 = 0.899	1.4184
305.27 K, x1 = 0.399	1.4084
306.18 K, x1 = 0.6	1.4134
306.19 K, x1 = 0.5	1.4111
306.2 K, x1 = 0.3	1.4044
306.2 K, x1 = 0.399	1.4081
306.2 K, x1 = 0.801	1.4168
306.22 K, x1 = 1	1.4193
306.23 K, x1 = 0.698	1.4151
306.25 K, x1 = 0.899	1.4181
307.19 K, x1 = 0.3	1.404
307.19 K, x1 = 0.801	1.4165
307.21 K, x1 = 0.399	1.4078
307.21 K, x1 = 0.6	1.4131
307.24 K, x1 = 0.698	1.4148
307.24 K, x1 = 0.899	1.4178
307.29 K, x1 = 0.2	1.3986
307.35 K, x1 = 0.5	1.4108
308.19 K, x1 = 0.5	1.4105
308.2 K, x1 = 0.3	1.4037
308.21 K, x1 = 0.801	1.4162
308.23 K, x1 = 0.899	1.4175
308.24 K, x1 = 0.698	1.4146
308.24 K, x1 = 1	1.4188
308.25 K, x1 = 0.399	1.4075
308.26 K, x1 = 0.2	1.3983
308.27 K, x1 = 0.6	1.4128
308.32 K, x1 = 0.1	1.3904
309.18 K, x1 = 0.399	1.4072
309.19 K, x1 = 0.3	1.4034
309.19 K, x1 = 0.5	1.4102
309.21 K, x1 = 0.6	1.4125
309.21 K, x1 = 0.899	1.4173
309.22 K, x1 = 0.698	1.4143
309.23 K, x1 = 0.1	1.3901
309.23 K, x1 = 0.801	1.416
309.28 K, x1 = 0.2	1.3979
310.11 K, x1 = 0.3	1.4031
310.19 K, x1 = 0.6	1.4122
310.2 K, x1 = 0.5	1.4099
310.21 K, x1 = 0.899	1.417
310.23 K, x1 = 0.1	1.3897
310.23 K, x1 = 0.698	1.414
310.25 K, x1 = 0.801	1.4157
310.25 K, x1 = 1	1.4183
310.26 K, x1 = 0.2	1.3976
310.29 K, x1 = 0.399	1.4069
311.2 K, x1 = 0.6	1.4119
311.2 K, x1 = 0.801	1.4154
311.2 K, x1 = 0.899	1.4167
311.21 K, x1 = 0.3	1.4027
311.21 K, x1 = 0.399	1.4066
311.22 K, x1 = 0.5	1.4096
311.24 K, x1 = 0.1	1.3893
311.25 K, x1 = 0.2	1.3973
311.25 K, x1 = 0.698	1.4138
312.17 K, x1 = 0.3	1.4024
312.17 K, x1 = 0.399	1.4063
312.19 K, x1 = 0.6	1.4116
312.19 K, x1 = 0.698	1.4135
312.2 K, x1 = 0.2	1.397
312.2 K, x1 = 0.5	1.4093
312.2 K, x1 = 0.801	1.4151
312.2 K, x1 = 0.899	1.4164
312.24 K, x1 = 1	1.4178
312.26 K, x1 = 0.1	1.3889
313.24 K, x1 = 0.1	1.3886
313.24 K, x1 = 0.2	1.3966
